# Measured values reported in patent US20030176465A1, “Cyclic amino acid derivatives” (priority 2000, published 2003).
# pIC50: −log10 of the molar value. Where a name gives a salt, the structure may show the parent alone.
# What was measured:
# factor Xa, human = factor Xa, human (Homo sapiens, UniProt P00742); experiment: Inhibition of factor Xa (IC50, headed 'Affinity to Receptors'); format: biochemical
# Description: The inhibition of factor Xa by the compounds according to the invention and the measurement of the anticoagulant and antithrombotic activity can be determined by conventional in-vitro or in-vivo methods. A suitable method is described, for example, by J. Hauptmann et al. in Thrombosis and Haemostasis 1990, 63, 220-223.
# The inhibition of factor Xa can be measured, for example, by the method of T. Hara et al. in Thromb. Haemostas. 1994, 71, 314-319.
# TF/VIIa = TF/VIIa (Homo sapiens, UniProt P08709); experiment: Inhibition of TF/VIIa (IC50, headed 'Affinity to Receptors'); format: biochemical
# Description: The inhibition of factor VIIa by the compounds according to the invention and the measurement of the anticoagulant and antithrombotic activity can be determined by conventional in-vitro or in-vivo methods. A conventional method for the measurement of the inhibition of factor VIIa is described, for example, by H. F. Ronning et al. in Thrombosis Research 1996, 84, 73-81.
# TF/VIIa, sequence (P08709 213-466 limits assumed): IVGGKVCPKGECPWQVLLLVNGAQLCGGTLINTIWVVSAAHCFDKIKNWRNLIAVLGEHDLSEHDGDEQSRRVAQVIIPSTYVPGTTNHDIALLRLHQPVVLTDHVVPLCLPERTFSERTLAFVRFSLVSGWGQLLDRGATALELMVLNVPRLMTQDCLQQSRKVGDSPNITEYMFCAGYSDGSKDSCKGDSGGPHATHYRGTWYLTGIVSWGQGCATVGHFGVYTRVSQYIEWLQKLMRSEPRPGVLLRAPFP
# TF/VIIa, sequence (P08709 61-212 limits assumed): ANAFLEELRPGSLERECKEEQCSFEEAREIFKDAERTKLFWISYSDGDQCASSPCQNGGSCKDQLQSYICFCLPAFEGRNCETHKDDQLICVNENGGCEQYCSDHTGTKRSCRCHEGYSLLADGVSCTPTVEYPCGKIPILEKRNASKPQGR
# TF/VIIa, sequence (P13726 33-295 partner): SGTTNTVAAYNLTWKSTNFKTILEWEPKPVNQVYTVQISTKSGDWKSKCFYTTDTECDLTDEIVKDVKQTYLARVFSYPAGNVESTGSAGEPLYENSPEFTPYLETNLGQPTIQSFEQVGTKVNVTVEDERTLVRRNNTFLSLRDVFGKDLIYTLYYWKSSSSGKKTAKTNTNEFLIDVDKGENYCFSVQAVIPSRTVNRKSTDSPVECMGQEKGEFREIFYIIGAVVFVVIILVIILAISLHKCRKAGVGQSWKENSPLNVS
# factor Xa, human, sequence (P00742 235-488 limits assumed): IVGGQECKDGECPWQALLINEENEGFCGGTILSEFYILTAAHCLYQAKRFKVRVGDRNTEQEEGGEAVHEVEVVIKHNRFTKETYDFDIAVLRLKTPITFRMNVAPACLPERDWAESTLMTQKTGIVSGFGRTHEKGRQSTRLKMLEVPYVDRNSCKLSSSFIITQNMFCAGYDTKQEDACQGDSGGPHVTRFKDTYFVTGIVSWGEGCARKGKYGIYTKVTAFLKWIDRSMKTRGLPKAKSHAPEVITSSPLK
# factor Xa, human, sequence (P00742 41-179 limits assumed): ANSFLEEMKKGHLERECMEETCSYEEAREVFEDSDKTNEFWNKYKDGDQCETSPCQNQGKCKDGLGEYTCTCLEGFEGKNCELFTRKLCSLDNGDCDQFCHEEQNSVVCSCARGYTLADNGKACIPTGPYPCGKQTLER
SMILES,melting point,"pIC50 (factor Xa, human)",pIC50 (TF/VIIa)
"Nc1nc(F)c(F)c(N2CCC[C@H]2C(=O)Nc2ccc(-c3ccccc3S(N)(=O)=O)cc2)c1F (as salt: trifluoroacetate) [AF, N-(2′-sulfamoylbiphenyl-4-yl)-(2S)-1-(2-amino-3,5,6-trifluoropyridin-4-yl)pyrrolidine-2-carboxamide, trifluoroacetate]",180 °C (dec.),–,–
"NC(=NO)c1cccc(N2CCCCC2C(=O)Nc2ccc(-c3ccccc3S(N)(=O)=O)cc2)c1 [DA, N-(2′-sulfamoylbiphenyl-4-yl)-(2R,S)-1-[3-(N-hydroxyamidino)phenyl]piperidine-2-carboxamide]",98 °C (dec.),6.47,6.36
